Results from PubChem BioAssay (NCI).
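Interpolation was linear, between the two tested concentrations surrounding the appropriate level; five concentrations were tested over 48 hours in 96-well plates. Abbreviation: GI50, concentration required for 50% inhibition of growth. At the TGI there is no net growth.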

Legend:
Assay in all cases: NCI tumour cell line growth inhibition, 48 h
[1] = system: MDA-MB-231 breast
[2] = system: OVCAR-3 ovarian
[3] = system: CAKI-1 renal
[4] = system: SK-MEL-28 melanoma
[5] = system: OVCAR-8 ovarian
[6] = system: SR leukemia
[7] = system: SF-268 CNS
[8] = system: UACC-62 melanoma
[9] = system: NCI-H460 lung
[10] = system: SK-OV-3 ovarian
[11] = system: NCI-H522 lung
[12] = system: A549 NSCLC
[13] = system: TK-10 renal
[14] = system: NCI-H226 lung
[15] = system: HOP-92 NSCLC
[16] = system: HS 578T breast
[17] = system: K-562 leukemia
[18] = system: CCRF-CEM leukemia
[19] = system: UO-31 renal
[20] = system: SK-MEL-5 melanoma
[21] = system: MOLT-4 leukemia
[22] = system: HCT-116 colon
[23] = system: ACHN renal
[24] = system: HT29 colon
[25] = system: HOP-62 NSCLC
[26] = system: SW-620 colon
[27] = system: OVCAR-4 ovarian
[28] = system: RXF 393 renal
[29] = system: M14 melanoma
[30] = system: BT-549 breast
[31] = system: OVCAR-5 ovarian
[32] = system: COLO 205 colon
[33] = system: T-47D breast
[34] = system: RPMI-8226 leukemia
[35] = system: HCC-2998 colon
[36] = system: SN12C renal
[37] = system: SF-539 CNS
[38] = system: U251 CNS
[39] = system: NCI-H23 lung
[40] = system: MDA-MB-435
[41] = system: 786-0 renal
[42] = system: UACC-257 melanoma
[43] = system: DU-145 prostate
[44] = system: NCI/ADR-RES ovarian
[45] = system: EKVX NSCLC
[46] = system: MCF7 breast
[47] = system: PC-3 prostate
[48] = system: SK-MEL-2 melanoma
[49] = system: A498 renal
[50] = system: KM12 colon
[51] = system: HL-60(TB) leukemia
[52] = system: HCT-15 colon
[53] = system: LOX IMVI melanoma
[54] = system: SF-295 CNS
[55] = system: IGROV1 ovarian
[56] = system: SNB-75 CNS
[57] = system: MALME-3M melanoma

`FC(F)(F)c1cccc(-c2[nH]ncc2-c2nnnn2-c2ccccc2)c1` showed a GI50 [1] of 3.2 µM, a TGI [1] of 12.7 µM and a GI50 [2] of 2.97 µM. It also gave a TGI [2] of 10.9 µM, a GI50 [3] of 5.36 µM and a TGI [3] of 27.7 µM. The GI50 [4] was 5.6 µM, the TGI [4] was 19.1 µM and the GI50 [5] was 7.77 µM. For the same compound, the TGI [5] was 90.2 µM, the GI50 [6] was 1.94 µM and the TGI [6] was 5.42 µM. For the same compound, the GI50 [7] was 7.69 µM, the TGI [7] was 23.3 µM and the GI50 [8] was 4.22 µM. It also gave a TGI [8] of 15.8 µM, a GI50 [9] of 3.32 µM and a TGI [9] of 12.8 µM. It also gave a GI50 [10] of 6.05 µM, a TGI [10] of 21.9 µM and a GI50 [11] of 4.58 µM. It also gave a TGI [11] of 19 µM, a GI50 [12] of 4.54 µM and a TGI [12] of 84.9 µM. For the same compound, the GI50 [13] was 6.6 µM, the TGI [13] was 20 µM and the GI50 [14] was 13.2 µM. It also gave a TGI [14] of 31.1 µM, a TGI [15] of 8.19 µM and a GI50 [16] of 4.85 µM. The TGI [16] was 28.4 µM, the GI50 [17] was 3.3 µM and the TGI [17] was 15.8 µM. For the same compound, the GI50 [18] was 5.3 µM, the TGI [18] was 22.9 µM and the GI50 [19] was 10.7 µM. For the same compound, the TGI [19] was 23.6 µM, the GI50 [20] was 3.01 µM and the TGI [20] was 10.6 µM. The GI50 [21] was 4.79 µM, the TGI [21] was 28.8 µM and the GI50 [22] was 4.7 µM. The TGI [22] was 19.4 µM, the GI50 [23] was 11.2 µM and the TGI [23] was 24.5 µM. The GI50 [24] was 2.99 µM, the TGI [24] was 9.33 µM and the GI50 [25] was 7.88 µM. For the same compound, the TGI [25] was 23.4 µM, the GI50 [26] was 3.23 µM and the TGI [26] was 12.2 µM. It also gave a GI50 [27] of 11.7 µM, a TGI [27] of 28.8 µM and a GI50 [28] of 2.91 µM. The TGI [28] was 11.7 µM, the GI50 [29] was 3.21 µM and the TGI [29] was 11.6 µM. The GI50 [30] was 3.78 µM, the TGI [30] was 13.9 µM and the GI50 [31] was 10.6 µM. For the same compound, the TGI [31] was 31.2 µM, the GI50 [32] was 3.49 µM and the TGI [32] was 13 µM. The GI50 [33] was 4.23 µM, the TGI [33] was 24.7 µM and the GI50 [34] was 3.12 µM. The TGI [34] was 13.3 µM, the GI50 [35] was 2.5 µM and the TGI [35] was 11 µM. For the same compound, the GI50 [36] was 9.76 µM, the TGI [36] was 21.9 µM and the GI50 [37] was 6.79 µM. It also gave a TGI [37] of 21 µM, a GI50 [38] of 4.69 µM and a TGI [38] of 17.1 µM. For the same compound, the GI50 [39] was 5.86 µM, the TGI [39] was 23.3 µM and the GI50 [40] was 1.86 µM. For the same compound, the TGI [40] was 5.89 µM, the GI50 [41] was 5.78 µM and the TGI [41] was 22 µM. For the same compound, the GI50 [42] was 11.4 µM, the TGI [42] was 33.9 µM and the GI50 [43] was 7.43 µM. The TGI [43] was 21.5 µM, the GI50 [44] was 3.17 µM and the TGI [44] was 25.2 µM. The GI50 [45] was 8.43 µM, the TGI [45] was 29.7 µM and the GI50 [46] was 3.3 µM. The TGI [46] was 13.7 µM, the GI50 [47] was 6.3 µM and the TGI [47] was 51.2 µM. The GI50 [48] was 12.8 µM, the TGI [48] was 31 µM and the GI50 [49] was 4.28 µM. It also gave a TGI [49] of 17.8 µM, a GI50 [50] of 4.08 µM and a TGI [50] of 22.2 µM. The GI50 [51] was 3.94 µM, the TGI [51] was 8.86 µM and the GI50 [52] was 3.71 µM. For the same compound, the TGI [52] was 16.3 µM, the GI50 [53] was 6.41 µM and the TGI [53] was 19.5 µM. For the same compound, the GI50 [54] was 2.49 µM, the TGI [54] was 9.04 µM and the GI50 [55] was 3.96 µM. The TGI [55] was 15.4 µM, the GI50 [56] was 4.81 µM and the TGI [56] was 20.1 µM. It also gave a GI50 [57] of 3.66 µM and a TGI [57] of 13.3 µM.
